Values quoted from earlier work as cited in patent US20210137911A1, “NOVEL CHRONOTHERAPY BASED ON CIRCADIAN RHYTHMS” (THE TRUSTEES OF THE UNIVERSITY OF PENNSYLVANIA, priority 2014, published 2021).
Like-named read-outs stand apart in the source and are kept apart here. Positions of bridges follow the written chain, without caps; N, C: chain ends. Non-standard residues stand in square brackets, D forms with d. Residues, ends and D or L forms follow the SMILES beside them.

Settings: cited from earlier work
[1] = half-life of top selling therapeutic compounds (Table 1)
[2] = half-life of therapeutic compound as listed in Table 1

Row | Compound | ½ Life [1] [h] | ½ Life (in vivo) [h] | further results
1 | CC1(C)O[C@@H]2C[C@H]3[C@@H]4C[C@H](F)C5=CC(=O)C=C[C@]5(C)[C@@]4(F)[C@@H](O)C[C@]3(C)[C@]2(C(=O)CO)O1 [Fluocinolone Acetonide] | 1.3 |  | 
2 | Cc1nccn1CC1CCc2c(c3ccccc3n2C)C1=O (centres unmarked) [Ondansetron] |  |  | ½ Life [2]: 5.7 h
3 | CC(=O)N1N=C(c2ccc(N)cc2)c2cc3c(cc2C[C@H]1C)OCO3 [Talampanel] |  | 3 | 
4 | C[C@H]1C[C@H]2[C@@H]3CCC4=CC(=O)C=C[C@]4(C)[C@@]3(Cl)[C@@H](O)C[C@]2(C)[C@@]1(O)C(=O)CO [Beclomethasone] |  | 2.8 | 
5 | Pegaptanib |  | 3 | 
6 | O=NN(CCCl)C(=O)NCCCl [Carmustine] |  | 0.25 | 
7 | O=C(Oc1ccccc1C(=O)O)c1ccccc1O [Salsalate] |  | 1 | 
8 | CCCCC(C)(O)C/C=C/[C@H]1[C@H](O)CC(=O)[C@@H]1CCCCCCC(=O)OC (mixture of isomers) [Misoprostol] |  |  | ½ Life [2]: 0.33 h
9 | COc1ccc(C(=O)Nc2ccccc2CCC2CCCCN2C)cc1 (centres unmarked) [Encainide] | 1 |  | 
10 | Nc1nc(N/N=C/C2CCCCC2)nc2c1ncn2[C@@H]1O[C@H](CO)[C@@H](O)[C@H]1O [Binodenoson] | 0.166 |  | 
11 | NNCCc1ccccc1 [Phenelzine] |  |  | ½ Life [2]: 1.2 h
12 | CCOc1cc(CC(=O)N[C@@H](CC(C)C)c2ccccc2N2CCCCC2)ccc1C(=O)O [Repaglinide] |  | 1 | 
13 | CC(=O)O[C@H]1C[C@@H]2CC[C@@H]3[C@H](CC[C@@]4(C)[C@H]3C[C@H]([N+]3(C)CCCCC3)[C@@H]4OC(C)=O)[C@@]2(C)C[C@@H]1N1CCCCC1 [Vecuronium] |  | 0.85 | 
14 | Aldesleukin |  | 0.216 | 
15 | COc1ccc(CN=c2[nH]c(N3CCC[C@H]3CO)ncc2C(=O)NCc2ncccn2)cc1Cl [Avanafil] | 5.36 |  | 
16 | CNC[C@H](O)c1cccc(O)c1 [Phenylephrine] |  |  | ½ Life [2]: 2.1 h
17 | CN1C(=O)CN=C(c2ccccc2)c2cc(Cl)ccc21 [Diazepam] |  | 1 | 
18 | OC(CCN1CCCCC1)(c1ccccc1)C1CCCCC1 (centres unmarked) [Trihexyphenidyl] |  | 3.3 | 
19 | Cn1c(=O)c2[nH]cnc2n(C)c1=O [Oxtriphylline] |  |  | ½ Life [2]: 3 h
20 | CC(C(=O)O)c1cccc(Oc2ccccc2)c1 (centres unmarked) [Fenoprofen] | 3 |  | 
21 | Cc1cc(C2CCCCC2)n(O)c(=O)c1 [Ciclopirox] | 1.7 |  | 
22 | CC(C)(C)NC(=O)[C@H]1CC[C@H]2[C@@H]3CC[C@H]4NC(=O)C=C[C@]4(C)[C@H]3CC[C@]12C [Finasteride] | 4.5 |  | 
23 | CCN(CC)CCOC(=O)c1ccc(N)cc1 [Procaine] |  |  | ½ Life [2]: 0.1283 h
24 | CCCCCCC(C)(C)c1cc(O)c2c(c1)OC(C)(C)C1CCC(=O)CC21 (centres unmarked) [Nabilone] |  |  | ½ Life [2]: 2 h

Row | Compound | ½ Life [1] [h] | ½ Life (in vivo) [h] | further results
25 | C=C1/C(=C\C=C2/CCC[C@]3(C)[C@@H]([C@H](C)CCCC(C)(C)O)CC[C@@H]23)C[C@@H](O)C[C@@H]1O [Calcitriol] | 5 |  | 
26 | Cc1cccc([C@H](C)c2cnc[nH]2)c1C [Dexmedetomidine] | 2 |  | 
27 | CCN1C(=O)NC(c2ccccc2)C1=O (centres unmarked) [Ethotoin] | 3 |  | 
28 | CCc1nn(CCCN2CCN(c3cccc(Cl)c3)CC2)c(=O)n1CCOc1ccccc1 [Nefazodone] |  |  | ½ Life [2]: 2 h
29 | CC(=O)Oc1ccccc1C(=O)Nc1ncc([N+](=O)[O-])s1 [Nitazoxanide] |  |  | ½ Life [2]: 3.5 h
30 | CCOc1ccccc1OCCN[C@H](C)Cc1ccc(OC)c(S(N)(=O)=O)c1 [Tamsulosin] |  | 5 | 
31 | CCC(=O)C1(c2cccc(O)c2)CCN(C)CC1 [Ketobemidone] |  | 2.42 | 
32 | Muromonab |  | 0.8 | 
33 | O=C(O)c1cc(/N=N/c2ccc(O)c(C(=O)O)c2)ccc1O [Olsalazine] |  |  | ½ Life [2]: 0.9 h
34 | Corticotropin (SYSMEHFRWGKPVGKKRRPVKVYPNGAEDESAEAFPLEF; Corticotropin; UniProt P01189 138-176, looked up) | 0.25 |  | 
35 | CC(C)C[C@H](NC(=O)[C@@H](Cc1ccc2ccccc2c1)NC(=O)[C@H](Cc1ccc(O)cc1)NC(=O)[C@H](CO)NC(=O)[C@H](Cc1c[nH]c2ccccc12)NC(=O)[C@H](Cc1c[nH]cn1)NC(=O)[C@@H]1CCC(=O)N1)C(=O)N[C@@H](CCCNC(=N)N)C(=O)N1CCC[C@H]1C(=O)NCC(N)=O [Nafarelin] |  | 3 | 
36 | COCCCOc1ccnc(C[S+]([O-])c2nc3ccccc3[nH]2)c1C (centres unmarked) [Rabeprazole] |  | 1 | 
37 | CC(O)(P(=O)(O)O)P(=O)(O)O [Etidronic acid] | 1 |  | 
38 | COC(=O)CCc1ccc(OCC(O)CNC(C)C)cc1 (centres unmarked) [Esmolol] | 2 |  | 
39 | CC#CCC(C)[C@H](O)/C=C/[C@@H]1[C@H]2C/C(=C/CCCC(=O)O)C[C@H]2C[C@H]1O (some centres unmarked) [Iloprost] |  |  | ½ Life [2]: 0.333 h
40 | Nc1nc(=O)[nH]cc1F [Flucytosine] | 2.4 |  | 
41 | C[N+]1(C)CCC(OC(=O)C(O)(c2ccccc2)C2CCCC2)C1 (centres unmarked) [Glycopyrrolate] |  |  | ½ Life [2]: 0.6 h
42 | CCC[C@H](N[C@@H](C)C(=O)N1[C@H](C(=O)O)C[C@@H]2CCCC[C@@H]21)C(=O)OCC [Perindopril] |  |  | ½ Life [2]: 1.2 h
43 | COc1cc2c3cc1Oc1cc(ccc1O)C[C@@H]1c4c(cc(OC)c(O)c4Oc4ccc(cc4)C[C@@H]3N(C)CC2)CC[N+]1(C)C [Tubocurarine] |  | 1 | 
44 | CCCCc1ncc(/C=C(\Cc2cccs2)C(=O)O)n1Cc1ccc(C(=O)O)cc1 [Eprosartan] | 5 |  | 
45 | Cc1ccc(Cl)c(OCC(O)CNC(C)(C)C)c1 (centres unmarked) [Bupranolol] | 2 |  | 
46 | CN(CC(=O)O)C(=N)N [Creatine] | 3 |  | 
47 | CC(=O)N[C@H]1[C@H]([C@H](O)[C@H](O)CO)OC(C(=O)O)=C[C@@H]1N=C(N)N [Zanamivir] |  | 2.5 | 
48 | CC[C@@H]1C(=O)OC[C@@H]1Cc1cncn1C [Pilocarpine] |  |  | ½ Life [2]: 0.76 h

Row | Compound | ½ Life [1] [h] | ½ Life (in vivo) [h] | further results
49 | CC(C)C[C@H](NC(=O)CNC(=O)[C@H](Cc1ccc(O)cc1)NC(=O)[C@H](CO)NC(=O)[C@H](Cc1c[nH]c2ccccc12)NC(=O)[C@H](Cc1cnc[nH]1)NC(=O)[C@@H]1CCC(=O)N1)C(=O)N[C@@H](CCCNC(=N)N)C(=O)N1CCC[C@H]1C(=O)NCC(N)=O [Gonadorelin] |  | 0.033 | 
50 | C[C@@H](CN1CC(=O)NC(=O)C1)N1CC(=O)NC(=O)C1 [Dexrazoxane] | 2.5 |  | 
51 | Nc1cc(-c2ccncc2)c[nH]c1=O [Amrinone] | 5 |  | 
52 | COc1ccc2c3c1O[C@H]1C(=O)CC[C@@]4(O)[C@@H](C2)N(C)CC[C@]314 [Oxycodone] |  |  | ½ Life [2]: 4.5 h
53 | CCOC(=O)[C@H](CCc1ccccc1)N[C@@H](C)C(=O)N1CCC[C@H]1C(=O)O [Enalapril, reference compound] | 2 |  | minimum reported half-life (see Table 1): 2 h
54 | CC(=O)O[C@H]1C[C@@H]2CC[C@@H]3[C@H](CC[C@@]4(C)[C@H]3C[C@H]([N+]3(C)CCCCC3)[C@@H]4OC(C)=O)[C@@]2(C)C[C@@H]1[N+]1(C)CCCCC1 [Pancuronium] |  | 1.5 | 
55 | CCCN(CCc1cccs1)[C@H]1CCc2c(O)cccc2C1 [Rotigotine] |  | 5 | 
56 | CCCc1cc(=O)[nH]c(=S)[nH]1 [Propylthiouracil] |  | 2 | 
57 | COc1cc([C@@H]2c3cc4c(cc3[C@@H](O[C@@H]3O[C@@H]5CO[C@@H](c6cccs6)O[C@H]5[C@H](O)[C@H]3O)[C@H]3COC(=O)[C@H]23)OCO4)cc(OC)c1O [Teniposide] |  | 5 | 
58 | CN(C)Cc1nnc2n1-c1ccc(Cl)cc1C(c1ccccc1)=NC2 [Adinazolam] |  | 3 | 
59 | CC(C)[C@@H]1NC(=O)[C@H](CCCCN)NC(=O)[C@@H](Cc2c[nH]c3ccccc23)NC(=O)[C@H](Cc2ccc(O)cc2)NC(=O)[C@@H](NC(=O)[C@H](N)Cc2ccccc2)CSSC[C@@H](C(=O)N[C@@H](Cc2c[nH]c3ccccc23)C(N)=O)NC1=O [Vapreotide] (H-[dF]CY[dW]KVCW-NH2; disulfide 2-7) |  | 0.5 | 
60 | CNCCc1ccccn1 [Betahistine] | 3 |  | 
61 | C[C@]12COC(=O)C[C@@H]1CC[C@@H]1[C@@H]2CC[C@@]2(C)[C@H]1CC[C@]2(C)O [Oxandrolone] |  |  | ½ Life [2]: 0.55 h
62 | NC(=O)CCC/N=C(\c1ccc(Cl)cc1)c1cc(F)ccc1O [Progabide] |  |  | ½ Life [2]: 4 h
63 | CCOC(=O)[C@H](CCc1ccccc1)N[C@@H](C)C(=O)N1Cc2ccccc2C[C@H]1C(=O)O [Quinapril] |  | 2 | 
64 | CC1=C(/C=C/C(C)=C/C=C/C(C)=C/C(=O)O)C(C)(C)CCC1 [Tretinoin] |  | 0.5 | 
65 | COc1ccc(Cl)cc1C(=O)NCCc1ccc(S(=O)(=O)NC(=O)NC2CCCCC2)cc1 [Glyburide] |  |  | ½ Life [2]: 1.4 h
66 | CC(C(=O)O)c1ccc(-c2ccccc2)c(F)c1 (centres unmarked) [Flurbiprofen] | 4.7 |  | 
67 | C[C@@H](CO)NC(=O)[C@@H]1C=C2c3cccc4[nH]cc(c34)C[C@H]2N(C)C1 [Ergonovine] | 1 |  | 
68 | CNS(=O)(=O)Cc1ccc2[nH]cc(CCN(C)C)c2c1 [Sumatriptan] |  | 2.5 | 
69 | C=CCOc1ccccc1OCC(O)CNC(C)C (centres unmarked) [Oxprenolol] |  |  | ½ Life [2]: 1 h
70 | Oc1ncnc2[nH]ncc12 [Allopurinol] | 1 |  | 
